# Reference: PubChem BioAssay AID2060500 (Molecular Pharmacology Branch, DTP, NCI, 2025)
# Tested on: 596521-263-R-J1-PDC complex spheroids, viability % of control
# Experiment: Anticancer human tumor 596521-263-R-J1-PDC patient-derived soft tissue sarcoma cell line growth inhibition [GQUAD]
# Settings: for IC50: curve of first compound; for viability, T/C: stronger effect = lower value
# Text: DNA G-quadruplex Stabilizer Agents in Combinations in Complex Spheroids
# A high-throughput screen of multi-cell type tumor spheroids was designed to identify active combinations of DNA G-quadruplex stabilizer agents and targeted small molecules. Complex spheroids include a stromal component modeled by human endothelial cells (HUVEC) and fibroblasts modeled by human mesenchymal stem cells (MSCs). The concentration ranges selected for each drug and investigational agent were based upon clinically achievable concentrations if the clinical Cmax of the agent was known.
# Compounds. The drugs and investigational agents: pidnarulex (CX-5461; NSC782164), APTO-253 (NSC789042), BRACO-19 (NSC847499), peposertib (NSC802822), ceralasertib (NSC780249), elimusertib (NSC800525), camonsertib (NSC841442), AZD-1390 (NSC803789), olaparib (NSC753686), talazoparib (NSC767125), ART-558 (NSC835418), sotorasib (NSC818433), MRTX-1133 (NSC836407), SN-38 (NSC673596), topotecan (NSC609699), etoposide (NSC141540), doxorubicin (NSC123127), gemcitabine (NSC613327), 5-fluorouracil (NSC19893), paclitaxel (NSC125973), vemurafenib (NSC761431), panobinostat (NSC761190), R-306465 (JNJ-16241199; NSC773264), adavosertib (NSC754352), TP-3654 (NSC805149), carboplatin (NSC241240), KSQ-4279 (NSC840948), and staurosporine (NSC755774) were obtained from the National Cancer Institute (NCI) Developmental Therapeutics Program Chemical Repository (34). The FDA-approved anticancer drug set is available from the NCI Developmental Therapeutics Program. […] The stock solutions were prepared in dimethyl sulfoxide (DMSO, Sigma-Aldrich, St. Louis, MO, cat. D2650) at 800-fold the tested concentration and stored at -70 degrees C prior to their use. All drugs and investigational agents were tested over a range starting from a high concentration at or near the clinical Cmax and decreasing in half-log increments. If the clinical Cmax for an agent had not been determined, the highest concentration tested was 10 microM.
# 2.3 Cell Culture. All cells were maintained in an incubator at 37 degrees C and 5% CO2 with 95% humidity. The PDC lines were cultured according to standard operating procedures established by the NCI PDMR. All PDCs were thawed and cultured in Matrigel-coated flasks prepared with a working solution of 1X Ham's F-12 nutrient mix, without supplementation (Invitrogen, cat. 11765054), 100 U/mL penicillin-streptomycin (Invitrogen, cat. 15140122), and 2.5% Matrigel (Corning Inc., cat. 354248) for the first three passages. The 857933-349-R-J2-PDC line was cultured in 6C/Colon 1B media, which includes advanced DMEM/F-12 (Thermo Fisher Scientific, cat. 12634028), 10 mM HEPES (Thermo Fisher Scientific, cat. 15630080), 1X GlutaMAX supplement (Thermo Fisher Scientific, cat. 35050061), 0.1 mg/mL primocin (InvivoGen, cat. ant-pm-2), 10% defined fetal bovine serum, heat inactivated (HyClone Laboratories Inc., cat. SH30070.03HI), 50% L-WRN conditioned media (ATCC, cat. CRL-3276), 1.25 mM N-Acetyl-L-cysteine (Sigma-Aldrich, cat. A9165), 10 mM nicotinamide (Sigma-Aldrich, cat. N0636), 1X B-27 supplement (Thermo Fisher Scientific, cat. 17504044), 1X N-2 supplement (Thermo Fisher Scientific, cat. 17502048), 10 microM Y-27632 dihydrochloride (Tocris Bioscience, cat. 1254), and 50 ng/mL human EGF recombinant protein (Thermo Fisher Scientific, cat. PHG0311). The 485176-168-R4-J1-PDC line was cultured in Panc media, which includes all 6C/Colon 1B media components plus 100 ng/mL human FGF-10 (Thermo Fisher Scientific, cat. 100-26), 500 nM SB-431542 (Selleckchem, cat. S1067), and gastrin (Tocris, cat. 3006).
# […]
# [1] = second compound 0.0316 µM, first compound 0.0316 µM
# [2] = second compound 0.0316 µM, first compound 0.1 µM
# [3] = second compound 0.0316 µM, first compound 0.316 µM
# [4] = second compound 0.0316 µM, first compound 1 µM
# [5] = second compound 0.0316 µM, first compound 3.16 µM
# [6] = second compound 0.0316 µM, first compound 10 µM
# [7] = second compound 0.1 µM, first compound 0.0316 µM
# [8] = second compound 0.1 µM, first compound 0.1 µM
# [9] = second compound 0.1 µM, first compound 0.316 µM
# [10] = second compound 0.1 µM, first compound 1 µM
# [11] = second compound 0.1 µM, first compound 3.16 µM
# [12] = second compound 0.1 µM, first compound 10 µM
# [13] = second compound 0.316 µM, first compound 0.0316 µM
# [14] = second compound 0.316 µM, first compound 0.1 µM
# [15] = second compound 0.316 µM, first compound 0.316 µM
# [16] = second compound 0.316 µM, first compound 1 µM
# [17] = second compound 0.316 µM, first compound 3.16 µM
# [18] = second compound 0.316 µM, first compound 10 µM
# [19] = second compound 1 µM, first compound 0.0316 µM
# [20] = second compound 1 µM, first compound 0.1 µM
# [21] = second compound 1 µM, first compound 0.316 µM
# [22] = second compound 1 µM, first compound 1 µM
# [23] = second compound 1 µM, first compound 3.16 µM
# [24] = second compound 1 µM, first compound 10 µM
# [25] = second compound 3.16 µM, first compound 0.0316 µM
# [26] = second compound 3.16 µM, first compound 0.1 µM
# [27] = second compound 3.16 µM, first compound 0.316 µM
# [28] = second compound 3.16 µM, first compound 1 µM
# [29] = second compound 3.16 µM, first compound 3.16 µM
# [30] = second compound 3.16 µM, first compound 10 µM
# [31] = second compound 10 µM, first compound 0.0316 µM
# [32] = second compound 10 µM, first compound 0.1 µM
# [33] = second compound 10 µM, first compound 0.316 µM
# [34] = second compound 10 µM, first compound 1 µM
# [35] = second compound 10 µM, first compound 3.16 µM
# [36] = second compound 10 µM, first compound 10 µM
# 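Note: spheroids exposed to drugs for 7 days before viability reading.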
smiles,measurement,setting,value
CC1COCCN1c1cc(C2(O)CC3CCC(C2)O3)c2cnn(-c3ccn[nH]3)c2n1 (stereo unspecified) + CN(C)c1ccc(Nc2c3ccc(NC(=O)CCN4CCCC4)cc3nc3cc(NC(=O)CCN4CCCC4)ccc23)cc1,IC50,second compound 0.0316 µM,0.134 µM
same,IC50,second compound 0.1 µM,0.221 µM
same,IC50,second compound 0.316 µM,0.148 µM
same,IC50,second compound 1 µM,0.162 µM
same,IC50,second compound 3.16 µM,0.112 µM
same,IC50,second compound 10 µM,0.0664 µM
same,"viability, T/C",[1],72.6%
same,"viability, T/C",[2],48.7%
same,"viability, T/C",[3],40.9%
same,"viability, T/C",[4],29.4%
same,"viability, T/C",[5],24.3%
same,"viability, T/C",[6],12.3%
same,"viability, T/C",[7],70.3%
same,"viability, T/C",[8],56.9%
same,"viability, T/C",[9],48.3%
same,"viability, T/C",[10],32.6%
same,"viability, T/C",[11],22.8%
same,"viability, T/C",[12],13.6%
same,"viability, T/C",[13],66.3%
same,"viability, T/C",[14],48.8%
same,"viability, T/C",[15],47.3%
same,"viability, T/C",[16],31.9%
same,"viability, T/C",[17],20.4%
same,"viability, T/C",[18],13.2%
same,"viability, T/C",[19],69.6%
same,"viability, T/C",[20],50.3%
same,"viability, T/C",[21],46.6%
same,"viability, T/C",[22],31.1%
same,"viability, T/C",[23],24.7%
same,"viability, T/C",[24],14.3%
same,"viability, T/C",[25],58.5%
same,"viability, T/C",[26],51.2%
same,"viability, T/C",[27],40.5%
same,"viability, T/C",[28],35.2%
same,"viability, T/C",[29],23.9%
same,"viability, T/C",[30],15.6%
same,"viability, T/C",[31],61.7%
same,"viability, T/C",[32],39%
same,"viability, T/C",[33],36.8%
same,"viability, T/C",[34],28.2%
same,"viability, T/C",[35],21.6%
same,"viability, T/C",[36],14.8%
COc1ccc([C@@H](O)c2cc(-c3ncnc4cc(N5CCOCC5)ccc34)c(F)cc2Cl)nn1 + CN(C)c1ccc(Nc2c3ccc(NC(=O)CCN4CCCC4)cc3nc3cc(NC(=O)CCN4CCCC4)ccc23)cc1,IC50,second compound 0.0316 µM,7.69 µM
same,IC50,second compound 0.1 µM,9.12 µM
same,IC50,second compound 0.316 µM,> 10 µM
same,IC50,second compound 1 µM,7.49 µM
same,IC50,second compound 3.16 µM,> 10 µM
same,IC50,second compound 10 µM,1.16 µM
same,"viability, T/C",[1],95.1%
same,"viability, T/C",[2],91.2%
same,"viability, T/C",[3],97.5%
same,"viability, T/C",[4],88.4%
same,"viability, T/C",[5],67.7%
same,"viability, T/C",[6],44.8%
same,"viability, T/C",[7],89.5%
same,"viability, T/C",[8],101%
same,"viability, T/C",[9],91.9%
same,"viability, T/C",[10],77.1%
same,"viability, T/C",[11],65.6%
same,"viability, T/C",[12],48.1%
same,"viability, T/C",[13],96.1%
same,"viability, T/C",[14],94.2%
same,"viability, T/C",[15],81.1%
same,"viability, T/C",[16],81.8%
same,"viability, T/C",[17],64.1%
same,"viability, T/C",[18],51.8%
same,"viability, T/C",[19],93.8%
same,"viability, T/C",[20],84.3%
same,"viability, T/C",[21],93.9%
same,"viability, T/C",[22],83.4%
same,"viability, T/C",[23],63.2%
same,"viability, T/C",[24],45.6%
same,"viability, T/C",[25],87.4%
same,"viability, T/C",[26],87.5%
same,"viability, T/C",[27],84.7%
same,"viability, T/C",[28],66.1%
same,"viability, T/C",[29],64.1%
same,"viability, T/C",[30],49.5%
same,"viability, T/C",[31],70.5%
same,"viability, T/C",[32],56.7%
same,"viability, T/C",[33],59.1%
same,"viability, T/C",[34],48.4%
same,"viability, T/C",[35],49.4%
same,"viability, T/C",[36],31.6%
O=C(c1cc(Cc2n[nH]c(=O)c3ccccc23)ccc1F)N1CCN(C(=O)C2CC2)CC1 + CN(C)c1ccc(Nc2c3ccc(NC(=O)CCN4CCCC4)cc3nc3cc(NC(=O)CCN4CCCC4)ccc23)cc1,IC50,second compound 0.0316 µM,> 10 µM
same,IC50,second compound 0.1 µM,> 10 µM
same,IC50,second compound 0.316 µM,> 10 µM
same,IC50,second compound 1 µM,> 10 µM
same,IC50,second compound 3.16 µM,> 10 µM
same,IC50,second compound 10 µM,> 10 µM
same,"viability, T/C",[1],112%
same,"viability, T/C",[2],106%
same,"viability, T/C",[3],101%
same,"viability, T/C",[4],104%
same,"viability, T/C",[5],86.2%
same,"viability, T/C",[6],68%
same,"viability, T/C",[7],108%
same,"viability, T/C",[8],89.3%
same,"viability, T/C",[9],97.4%
same,"viability, T/C",[10],99%
same,"viability, T/C",[11],88.3%
same,"viability, T/C",[12],67.9%
same,"viability, T/C",[13],114%
same,"viability, T/C",[14],103%
same,"viability, T/C",[15],101%
same,"viability, T/C",[16],103%
same,"viability, T/C",[17],88.5%
same,"viability, T/C",[18],74.3%
same,"viability, T/C",[19],108%
same,"viability, T/C",[20],98.2%
same,"viability, T/C",[21],109%
same,"viability, T/C",[22],99.2%
same,"viability, T/C",[23],94.6%
same,"viability, T/C",[24],69.2%
same,"viability, T/C",[25],110%
same,"viability, T/C",[26],89.6%
same,"viability, T/C",[27],90.8%
same,"viability, T/C",[28],89.9%
same,"viability, T/C",[29],91%
same,"viability, T/C",[30],70.8%
same,"viability, T/C",[31],70.4%
same,"viability, T/C",[32],62.2%
same,"viability, T/C",[33],76.7%
same,"viability, T/C",[34],72.4%
same,"viability, T/C",[35],66.5%
same,"viability, T/C",[36],59.9%
